Assays:
[1] = tested on: plasma cholesterol and triglycerides; test: Hamster feeding study, plasma cholesterol and triglycerides (Example I, Table A); type: in vivo, hamsters; settings: for % Change HDL cholesterol / % Change HDL/LDL / % Change LDL cholesterol / % Change Total cholesterol / % Change Triglycerides: HMB vs control
Protocol: A preliminary experiment was carried out using hamsters as the test animal and Na-HMB as the therapeutic agent. The experimental details and the results obtained are described as follows.
Pregnant Female hamsters were housed and allowed to give birth. At three weeks of age, litters were subdivided into pairs within a sex. The pairs of hamsters were then assigned randomly a purified diet based on casein and cornstarch with either contained 0.1% NaCl (control) or one containing 0.1% Na-HMB (HMB). They were maintained on this diet for 6 weeks at which time they were killed by decapitation and blood collected into EDTA containing tubes. Blood was separated by centrifugation and plasma collected. The unfrozen plasma was treated with an LDL precipitating agent, centrifuged and the supernatant collected. The whole plasma and supernatant were assayed for cholesterol by an enzymatic method. Plasma cholesterol estimated total cholesterol while the supernatant represented HDL cholesterol. LDL cholesterol was estimated by the formula: LDL-Cholesterol=(Total cholesterol)-(HDL cholesterol)-(triglycerides X 0.2). Total triglycerides in plasma were estimated by an enzymatic assay.

[2] = tested on: aorta; test: Pig feeding study, aorta streaking (pre-atherosclerotic lesions) (Example III, Table C); type: in vivo, pigs; settings: for Aorta Streaking: 0 least severe to 3.2 most severe, control 1.87
Protocol: (§1) A further large mammal study was carried out with pigs. Pigs comprise test animals which are more similar in certain respects to humans than ruminants.
(§2) Control: 60 g. of calcium
(§3) The pigs were housed in pens of two animals each and were allowed ad libitum access to food and water. Pigs were approximately 160 lbs. at the start of the experiment and were 240 lbs. at the end. All pigs were castrate males. At day 28 and day 43 of the experiment blood was collected from the anterior vena cava by venipuncture. Blood was collected into EDTA containing tubes, centrifuged and frozen until analyzed. At approximately 100 days of the experiment half of the animals (32) were slaughtered, and at 120 days the remaining 32 animals were slaughtered. At the time of slaughter the abdominal aorta was dissected out and external fat removed. The aorta was then split lengthwise and 1/2 fixed in formaldehyde for 48 hours. At this time aortas were removed, stretched over a 6 inch stick, washed in ethanol and stained with a lipid stain for 2 hours. After a 1 hour wash aortas were blotted and examined. All the aortas from a group were laid out on a white bench and arranged in order from least sever to most sever. The least sever had no dark red streaks on the aorta or around the small vertebral vessels leaving the aorta. The most sever lesions had multiple streaks in the middle of the aorta and dark red deposits in turbulent areas such as the branching of vessels from the aorta. The ordered aortas were then assigned a consecutive decimal number. The first (least severe) was assigned 0 and the most severe was assigned 3.2 Plasma cholesterol and triglycerides were measured by an enzyme-colorimetric assay (Sigma).
(§4) statistical analysis was accomplished by the general linear model procedure of the Statistical Analysis System (SAS). The model included the main effects of treatment and pen number. T-tests were conducted from the ANOVA standard error, to compare the HMB treatments to the control. […] It appeared that HMB can partially prevent the formation of pre-atherosclerotic lesions. No effect of KIC was noted relative to any parameter.

[3] = tested on: plasma cholesterol and triglycerides; test: Pig feeding study, plasma cholesterol and triglycerides (Example III, Table C); type: in vivo, pigs; settings: for Plasma Triglycerides: control 107, ns; for Plasma Cholesterol: control 135
Protocol: as §1, §2, §3, §4

[4] = Controlled double-blind human study, body weight, body fat and resting metabolic rate (Example IV, Table D); type: in vivo, humans
Protocol: In view of the findings of the foregoing examples, a human study was carried out.
In a controlled double-blind study, the effects of feeding HMB on loss of urinary nitrogen, blood cholesterol and immune function in normal humans were tested. This study also measured blood components that reflect liver, kidney and tissue metabolism. In addition further measurements of nitrogen metabolism and immune function were implemented. All measurements were made in a controlled dietary situation and under blinded conditions. Normal male subjects were used who had been screened for normalcy. Ca-HMB was administered in 250 mg capsules. The subjects were instructed to take the capsules in 4 equal doses daily (with meals and at bed time). The subject ate all their meals under controlled conditions. Normal diets were used, and the amount of the diets was controlled to maintain equal and substantially constant nitrogen intake. The subjects had blood drawn before the morning meal or before they took the morning HMB dose. Each subject was studied twice: once with a placebo and once with HMB.

[5] = tested on: blood cholesterol; test: Human dose-response study, blood cholesterol, triglycerides and glucose (Example V, Table E); type: in vivo, humans
Protocol: (§5) Higher dose levels than in Example IV of Ca-HMB were tested in humans. The objective was to obtain an indication of whether higher doses could be safely administered, and also whether higher doses might provide a greater reduction in total cholesterol and LDL cholesterol.
(§6) Normal humans were used in the study. Ca-HMB was administered in 250 mg capsules, and the subjects were instructed to take the capsules in 4 equal doses daily. No control of diet was attempted except they were instructed to eat as they normally would. On alternate days the subjects had blood drawn before the morning meal and before they took the morning HMB dose. Four subjects were studied for dose level of 05., 1, 2 and 4 grams per day.
(§7) Results from all samples of each subject were subjected to linear regression and the slope and intercept used to calculate the % change in concentration after 8 days on treatment. The percentage changes were then subjected to ANOVA-regression to determine if there was a linear effect of dosage on the parameter. The dose-response effect (p<) is listed in the linear effect column of Table E.

[6] = Human dose-response study, body weight and body fat (Example V, Table E); type: in vivo, humans; settings: study combined with Example IV
Protocol: as §5, §6, §7

[7] = Human dose-response study, adverse effects (Example V); type: in vivo, humans; settings: 0.5 to 4 g per day
Protocol: as §5, §6

[8] = tested on: acetate incorporation into cholesterol; settings: added to the media at very high concentrations; cited from earlier work
[9] = females, 0.1% Na-HMB diet, 6 weeks
[10] = males, 0.1% Na-HMB diet, 6 weeks
[11] = HMB change net of placebo-group change
[12] = 4 grams per day, end of the one week study

CC(C)(O)CC(=O)O [HMB, β-hydroxy-β-methylbutyric acid]
HDL cholesterol ([1]; females, 0.1% Na-HMB diet, 6 weeks, control 125): 132 mg %
Total cholesterol ([1]; females, 0.1% Na-HMB diet, 6 weeks, control 237): 228 mg %
Triglycerides ([1]; females, 0.1% Na-HMB diet, 6 weeks, control 240): 212 mg %
HDL/LDL ([1]; females, 0.1% Na-HMB diet, 6 weeks, control .51): .41
LDL cholesterol ([1]; females, 0.1% Na-HMB diet, 6 weeks, estimated by formula, control 64): 53 mg %
% Change HDL cholesterol [1, 9]: +5%
% Change HDL/LDL [1, 9]: -20%
% Change LDL cholesterol [1, 9]: -17%
% Change Total cholesterol [1, 9]: -4%
% Change Triglycerides [1, 9]: -11%
HDL cholesterol ([1]; hamsters): a trend to increase HDL cholesterol
LDL cholesterol ([1]; hamsters): markedly lower LDL cholesterol
ratio of LDL/HDL ([1]; hamsters): positively affected
HDL cholesterol ([1]; males, 0.1% Na-HMB diet, 6 weeks, control 111): 118 mg %
Total cholesterol ([1]; males, 0.1% Na-HMB diet, 6 weeks, control 217): 208 mg %
Triglycerides ([1]; males, 0.1% Na-HMB diet, 6 weeks, control 232): 226 mg %
HDL/LDL ([1]; males, 0.1% Na-HMB diet, 6 weeks, control .53): .38
LDL cholesterol ([1]; males, 0.1% Na-HMB diet, 6 weeks, estimated by formula, control 59): 45 mg %
% Change HDL cholesterol [1, 10]: +5%
% Change HDL/LDL [1, 10]: -28%
% Change LDL cholesterol [1, 10]: -24%
% Change Total cholesterol [1, 10]: -4%
% Change Triglycerides [1, 10]: -2%
deposits of fat in the aorta ([2]; HMB-fed pigs): lower deposits of fat in the aorta
Aorta Streaking ([2]; dietary .01%, HMB C vs. .01% p .12): 1.23
Aorta Streaking ([2]; dietary .05%, HMB p .06, KIC ns): 1.18
Plasma Triglycerides ([3]; dietary .01%): 105 mg %
Plasma Cholesterol ([3]; dietary .01%, HMB C vs. .01% p .14): 120 mg %
Plasma Triglycerides ([3]; dietary .05%): 109 mg %
Plasma Cholesterol ([3]; dietary .05%, HMB p .05, KIC ns): 118 mg %
% Net Effect HMB, % Body fat [4, 11]: -9%
% Net Effect HMB, Resting metabolic rate [4, 11]: 0%
% Net Effect HMB, Weight [4, 11]: 1.4%
Body weight ([4]; HMB treatment): did not change
body fat ([4]; HMB treatment): did not change
resting metabolic rate ([4]; HMB treatment): did not change
% Change Trt. % Body fat ([4]; control to HMB treatment): -12%
% Change Trt. Resting metabolic rate ([4]; control to HMB treatment): 4%
% Change Trt. Weight ([4]; control to HMB treatment): 1.4%
% Body fat (skin fold) ([4]; treated group on HMB, Ca HMB 1.0 grams/24 hours, pre-treatment control 12.5): 11.0%
resting metabolic rate ([4]; treated group on HMB, Ca HMB 1.0 grams/24 hours, pre-treatment control 74.8): 77.8 KCal/mw
Weight ([4]; treated group on HMB, Ca HMB 1.0 grams/24 hours, pre-treatment control 176): 179 lbs.
cholesterol ([5]; 2 grams daily): appeared to decrease cholesterol
decrease of LDL cholesterol [5, 12]: about 6%
decrease of total cholesterol [5, 12]: about 6%
cholesterol ([5]; doses lower than 2 grams daily): no effect was clearly observable
blood cholesterol ([5]; over the course of the week): decreased in a dose-responsive manner
effect on body fat [6]: extremely suggestive of an effect on body fat
adverse affects [7]: no adverse affects
complaint noted with several patients [7]: being hungrier than normal
inhibition of acetate incorporation [8]: no significant inhibition

From patent US5360613A, “Method of reducing blood levels of total cholesterol and low-density lipoprotein cholesterol” (Iowa State University Research Foundation, Inc., priority 1993, dated 1994)
